According to patent US8415272B2, “Quinoline derivatives and their use as fungicides” (Syngenta Crop Protection LLC, priority 2008, dated 2013):

Tests used:
[1] = test system: Phytophthora infestans; assay: whole plant or invertebrate; assay type: in vivo; conditions: in Solanum lycopersicum, foliar, 96 h, read-out: control of fungal infection, Phytophthora infestans
[2] = test system: Plasmopara viticola; assay: Leaf disk assay, Plasmopara viticola (downy mildew of grapevine), preventive; assay type: in vivo; conditions: foliar, 168 h, grapevine leaf disks, assessed seven days after inoculation, read-out: control of fungal infection, Plasmopara viticola
[3] = test system: Erysiphe graminis f.sp. tritici; assay: Leaf disk assay, Erysiphe graminis f.sp. tritici (wheat powdery mildew), preventive; assay type: in vivo; conditions: Blumeria graminis, foliar, 96 h, wheat leaf segments, assessed four days after inoculation, read-out: control of fungal infection, Erysiphe graminis f.sp. tritici
Experimental: The compounds were tested in a leaf disk assay, with methods described below. The test compounds were dissolved in DMSO and diluted into water to 200 ppm. In the case of the test on Pythium ultimum, they were dissolved in DMSO and diluted into water to 20 […] graminis f.sp. tritici (wheat powdery mildew): Wheat leaf segments were placed on agar in a 24-well plate and sprayed with a solution of the test compound. After allowing to dry completely, for between 12 and 24 hours, the leaf disks were inoculated with a spore suspension of the fungus. After appropriate incubation the activity of a compound was assessed four days after inoculation as preventive fungicidal activity.

[4] = test system: Septoria nodorum; assay: Leaf disk assay, Septoria nodorum (wheat glume blotch), preventive; assay type: in vivo; conditions: Parastagonospora nodorum, foliar, 96 h, wheat leaf segments, assessed four days after inoculation, read-out: control of fungal infection, Septoria nodorum
[5] = test system: Septoria tritici; assay: Growth inhibition in nutrient broth, Septoria tritici (leaf blotch), photometric; assay type: cell-based; conditions: Zymoseptoria tritici, PDB broth, 24 C, 72 hrs, read-out: control of fungal infection, Septoria tritici
[6] = test system: Pythium ultimum; assay: Growth inhibition in potato dextrose broth, Pythium ultimum (damping off), photometric; assay type: cell-based; conditions: Globisporangium ultimum, 24° C., 48 hours, read-out: control of fungal infection, Pythium ultimum
Experimental: The compounds were tested in a leaf disk assay, with methods described below. The test compounds were dissolved in DMSO and diluted into water to 200 ppm. In the case of the test on Pythium ultimum, they were dissolved in DMSO and diluted into water to 20 ppm. Pythium ultimum (Damping off): Mycelial fragments of the fungus, prepared from a fresh liquid culture, were mixed into potato dextrose broth. A solution of the test compound in dimethyl sulphoxide was diluted with water to 20 ppm then placed into a 96-well microtiter plate and the nutrient broth containing the fungal spores was added. The test plate was incubated at 24° C. and the inhibition of growth was determined photometrically after 48 hours.

[7] = test system: Puccinia recondita f.sp. tritici; assay: Leaf disk assay, Puccinia recondita f.sp. tritici (wheat brown rust), preventive; assay type: in vivo; conditions: foliar, 216 h, wheat leaf segments, assessed nine days after inoculation, read-out: control of fungal infection, Puccinia recondita f.sp. tritici
[8] = test system: Fusarium culmorum; assay: Growth inhibition in nutrient broth, Fusarium culmorum (root rot), photometric; assay type: cell-based; conditions: 48 h, read-out: control of fungal infection, Fusarium culmorum
Experimental: The compounds were tested in a leaf disk assay, with methods described below. The test compounds were dissolved in DMSO and diluted into water to 200 ppm. In the case of the test on Pythium ultimum, they were dissolved in DMSO and diluted into water to 20 ppm.
Fusarium culmorum (root rot): Conidia of the fungus from cryogenic storage were directly mixed into nutrient broth (PDB potato dextrose broth). After placing a (DMSO) solution of the test compounds into a microtiter plate (96-well format) the nutrient broth containing the fungal spores was added. The test plates were incubated at 24 C and the inhibition of growth was determined photometrically after 48 hrs.

C#Cc1cnc2ccc(OC(SC)C(=O)NC3(C(OC)OC)CCC3)cc2c1 (stereo not shown) [Example 153]
≥ 60%: pest or weed control at 200 ppm [1] | pest or weed control at 200 ppm [2] | pest or weed control at 200 ppm [3] | pest or weed control at 200 ppm [4] | inhibition of growth at 60 ppm [5] | inhibition of growth at 20 ppm [6]

CC#Cc1cnc2ccc(OC(SC)C(=O)NC(C)(C)C#CCOC)cc2c1 (stereo not shown) [Example 55]
≥ 60%: pest or weed control at 200 ppm [1] | pest or weed control at 200 ppm [2] | pest or weed control at 200 ppm [3] | pest or weed control at 200 ppm [7] | pest or weed control at 200 ppm [4] | inhibition of growth at 60 ppm [5] | inhibition of growth at 20 ppm [6]

C#Cc1cnc2cc(F)c(OC(SC)C(=O)NC(C)(C)C#CCC)cc2c1 (stereo not shown) [Example 190]
≥ 60%: pest or weed control at 200 ppm [1] | pest or weed control at 200 ppm [2] | inhibition of growth at 60 ppm [8] | inhibition of growth at 20 ppm [6]

C#Cc1cnc2cc(F)c(OC(SC)C(=O)NC(C)(C)C(=O)OC)cc2c1 (stereo not shown) [Example 105]
≥ 60%: pest or weed control at 200 ppm [1] | pest or weed control at 200 ppm [2] | pest or weed control at 200 ppm [3] | pest or weed control at 200 ppm [7] | pest or weed control at 200 ppm [4] | inhibition of growth at 60 ppm [5]

CC#Cc1cnc2ccc(OC(SC)C(=O)NC(C)(C#N)COC)cc2c1 (stereo not shown) [Example 53]
≥ 60%: pest or weed control at 200 ppm [1] | pest or weed control at 200 ppm [4] | inhibition of growth at 60 ppm [5] | inhibition of growth at 20 ppm [6]

C#Cc1cnc2cc(F)c(OC(CC)C(=O)NC(C)(C)C=O)cc2c1 (stereo not shown) [Example 193]
≥ 60%: pest or weed control at 200 ppm [1] | pest or weed control at 200 ppm [2] | inhibition of growth at 60 ppm [8] | inhibition of growth at 20 ppm [6]

C#Cc1cnc2c(Cl)cc(OC(SC)C(=O)NC(C)(C)C#CCCCCl)cc2c1 (stereo not shown) [Example 123]
≥ 60%: pest or weed control at 200 ppm [1] | pest or weed control at 200 ppm [2] | pest or weed control at 200 ppm [3] | pest or weed control at 200 ppm [7] | pest or weed control at 200 ppm [4] | inhibition of growth at 60 ppm [5]

C#Cc1cnc2ccc(OC(OC)C(=O)NC(C)(C#C)COC)cc2c1 (stereo not shown) [Example 155]
≥ 60%: pest or weed control at 200 ppm [3] | pest or weed control at 200 ppm [7] | pest or weed control at 200 ppm [4]

C#Cc1cnc2c(C)cc(OC(SC)C(=O)NC(C)(C=O)COC)cc2c1 (stereo not shown) [Example 134]
≥ 60%: pest or weed control at 200 ppm [1] | pest or weed control at 200 ppm [2] | pest or weed control at 200 ppm [3] | pest or weed control at 200 ppm [7] | pest or weed control at 200 ppm [4] | inhibition of growth at 60 ppm [5]

C#Cc1cnc2ccc(OC(OC)C(=O)NC(C)(C)C#CC)cc2c1 (stereo not shown) [Example 86]
≥ 60%: pest or weed control at 200 ppm [1] | pest or weed control at 200 ppm [2] | pest or weed control at 200 ppm [3] | pest or weed control at 200 ppm [7] | pest or weed control at 200 ppm [4] | inhibition of growth at 60 ppm [5]

COCC#CC(C)(C)NC(=O)C(Oc1ccc2ncc(C#CCO)cc2c1)SC (stereo not shown) [Example 49]
≥ 60%: pest or weed control at 200 ppm [1] | pest or weed control at 200 ppm [2] | pest or weed control at 200 ppm [7] | inhibition of growth at 20 ppm [6]

C#Cc1cnc2ccc(OC(SC)C(=O)NC)cc2c1 (stereo not shown) [Example 96]
≥ 60%: pest or weed control at 200 ppm [1] | pest or weed control at 200 ppm [2] | pest or weed control at 200 ppm [3] | pest or weed control at 200 ppm [4] | inhibition of growth at 60 ppm [5] | inhibition of growth at 20 ppm [6]

C#Cc1cnc2ccc(OC(SC)C(=O)NC(C)(C#C)CO)cc2c1 (stereo not shown) [Example 173]
≥ 60%: pest or weed control at 200 ppm [1] | pest or weed control at 200 ppm [2] | pest or weed control at 200 ppm [3] | pest or weed control at 200 ppm [4] | inhibition of growth at 20 ppm [6]

C#Cc1cnc2c(F)c(F)c(OC(SC)C(=O)NC(C)(C)C#CCOC)cc2c1 (stereo not shown) [Example 215]
≥ 60%: pest or weed control at 200 ppm [1] | pest or weed control at 200 ppm [2] | pest or weed control at 200 ppm [3] | pest or weed control at 200 ppm [7] | inhibition of growth at 60 ppm [5] | inhibition of growth at 20 ppm [6]

C#Cc1cnc2ccc(OC(SC)C(=O)NC3(C#N)CCC3)cc2c1 (stereo not shown) [Example 83]
≥ 60%: pest or weed control at 200 ppm [1] | pest or weed control at 200 ppm [2] | pest or weed control at 200 ppm [3] | pest or weed control at 200 ppm [7] | pest or weed control at 200 ppm [4] | inhibition of growth at 60 ppm [5]

C#Cc1cnc2ccc(OC(OC)C(=O)NC(C)(C#N)COC)cc2c1 (stereo not shown) [Example 128]
≥ 60%: pest or weed control at 200 ppm [1] | pest or weed control at 200 ppm [2] | pest or weed control at 200 ppm [3] | pest or weed control at 200 ppm [4] | inhibition of growth at 60 ppm [5] | inhibition of growth at 20 ppm [6]

C#Cc1cnc2ccc(OC(SC)C(=O)NC(C)(C#N)CSC)cc2c1 (stereo not shown) [Example 67]
≥ 60%: pest or weed control at 200 ppm [1] | pest or weed control at 200 ppm [2] | pest or weed control at 200 ppm [3] | pest or weed control at 200 ppm [7] | inhibition of growth at 60 ppm [5] | inhibition of growth at 20 ppm [6]

C#Cc1cnc2ccc(OC(SC)C(=O)NCCO)cc2c1 (stereo not shown) [Example 194]
≥ 60%: pest or weed control at 200 ppm [1] | pest or weed control at 200 ppm [2] | pest or weed control at 200 ppm [4] | inhibition of growth at 20 ppm [6]

C#Cc1cnc2ccc(OC(SC)C(=O)NC3(CO)CCC3)cc2c1 (stereo not shown) [Example 148]
≥ 60%: pest or weed control at 200 ppm [1] | pest or weed control at 200 ppm [2] | pest or weed control at 200 ppm [3] | pest or weed control at 200 ppm [7] | inhibition of growth at 60 ppm [5]

C#Cc1cnc2c(Cl)cc(OC(SC)C(=O)NC(C)(C#N)COC)cc2c1 (stereo not shown) [Example 64]
≥ 60%: pest or weed control at 200 ppm [1] | pest or weed control at 200 ppm [2] | pest or weed control at 200 ppm [3] | pest or weed control at 200 ppm [7] | pest or weed control at 200 ppm [4] | inhibition of growth at 60 ppm [5] | inhibition of growth at 20 ppm [6]

C#Cc1cnc2ccc(OC(SC)C(=O)NC(C)(C)C#CCCOC)cc2c1 (stereo not shown) [Example 103]
≥ 60%: pest or weed control at 200 ppm [1] | pest or weed control at 200 ppm [2] | pest or weed control at 200 ppm [3] | pest or weed control at 200 ppm [7] | pest or weed control at 200 ppm [4]

C#Cc1cnc2ccc(OC(SC)C(=O)NC(C)(COC)COC)cc2c1 (stereo not shown) [Example 88]
≥ 60%: pest or weed control at 200 ppm [1] | pest or weed control at 200 ppm [2] | pest or weed control at 200 ppm [3] | pest or weed control at 200 ppm [7] | pest or weed control at 200 ppm [4] | inhibition of growth at 60 ppm [5] | inhibition of growth at 20 ppm [6]

C#Cc1cnc2ccc(OC(SC)C(=O)NC(C)(C)CCOC)cc2c1 (stereo not shown) [Example 85]
≥ 60%: pest or weed control at 200 ppm [1] | pest or weed control at 200 ppm [2] | pest or weed control at 200 ppm [3] | pest or weed control at 200 ppm [7] | pest or weed control at 200 ppm [4] | inhibition of growth at 60 ppm [5] | inhibition of growth at 20 ppm [6]

C#CCOCC(C)(COCC#C)NC(=O)C(Oc1ccc2ncc(C#C)cc2c1)SC (stereo not shown) [Example 165]
≥ 60%: pest or weed control at 200 ppm [1] | pest or weed control at 200 ppm [2] | pest or weed control at 200 ppm [3] | pest or weed control at 200 ppm [7] | pest or weed control at 200 ppm [4] | inhibition of growth at 60 ppm [5] | inhibition of growth at 20 ppm [6]

C#Cc1cnc2c(C)cc(OC(CC)C(=O)NC(C)(C)C#CCOC)cc2c1 (stereo not shown) [Example 112]
≥ 60%: pest or weed control at 200 ppm [1] | pest or weed control at 200 ppm [2] | pest or weed control at 200 ppm [3] | pest or weed control at 200 ppm [7] | pest or weed control at 200 ppm [4] | inhibition of growth at 60 ppm [5]

C#Cc1cnc2ccc(OC(SC)C(=O)NC(C)(C#N)COC)cc2c1 (stereo not shown) [Example 25]
≥ 60%: pest or weed control at 200 ppm [1] | pest or weed control at 200 ppm [2] | pest or weed control at 200 ppm [3] | pest or weed control at 200 ppm [7] | pest or weed control at 200 ppm [4] | inhibition of growth at 60 ppm [5] | inhibition of growth at 20 ppm [6]

C#CCOCC1(NC(=O)C(Oc2ccc3ncc(C#C)cc3c2)SC)CCC1 (stereo not shown) [Example 152]
≥ 60%: pest or weed control at 200 ppm [1] | pest or weed control at 200 ppm [2] | pest or weed control at 200 ppm [3] | pest or weed control at 200 ppm [4] | inhibition of growth at 60 ppm [5]

C#Cc1cnc2c(Cl)cc(OC(SC)C(=O)NC(C)(C#CC)CC)cc2c1 (stereo not shown) [Example 121]
≥ 60%: pest or weed control at 200 ppm [1] | pest or weed control at 200 ppm [2] | pest or weed control at 200 ppm [3] | pest or weed control at 200 ppm [4] | inhibition of growth at 60 ppm [5] | inhibition of growth at 20 ppm [6]
